Experimental data from ChEMBL document CHEMBL1145911, “Rational design and synthesis of androgen receptor-targeted nonsteroidal anti-androgen ligands for the tumor-specific delivery of a doxorubicin-formaldehyde conjugate” (J Med Chem, 2003).

Each molecule was assayed against T1, Androgen receptor (Homo sapiens, UniProt P10275) (assay: biochemical).
T1 sequence (P10275 whole entry): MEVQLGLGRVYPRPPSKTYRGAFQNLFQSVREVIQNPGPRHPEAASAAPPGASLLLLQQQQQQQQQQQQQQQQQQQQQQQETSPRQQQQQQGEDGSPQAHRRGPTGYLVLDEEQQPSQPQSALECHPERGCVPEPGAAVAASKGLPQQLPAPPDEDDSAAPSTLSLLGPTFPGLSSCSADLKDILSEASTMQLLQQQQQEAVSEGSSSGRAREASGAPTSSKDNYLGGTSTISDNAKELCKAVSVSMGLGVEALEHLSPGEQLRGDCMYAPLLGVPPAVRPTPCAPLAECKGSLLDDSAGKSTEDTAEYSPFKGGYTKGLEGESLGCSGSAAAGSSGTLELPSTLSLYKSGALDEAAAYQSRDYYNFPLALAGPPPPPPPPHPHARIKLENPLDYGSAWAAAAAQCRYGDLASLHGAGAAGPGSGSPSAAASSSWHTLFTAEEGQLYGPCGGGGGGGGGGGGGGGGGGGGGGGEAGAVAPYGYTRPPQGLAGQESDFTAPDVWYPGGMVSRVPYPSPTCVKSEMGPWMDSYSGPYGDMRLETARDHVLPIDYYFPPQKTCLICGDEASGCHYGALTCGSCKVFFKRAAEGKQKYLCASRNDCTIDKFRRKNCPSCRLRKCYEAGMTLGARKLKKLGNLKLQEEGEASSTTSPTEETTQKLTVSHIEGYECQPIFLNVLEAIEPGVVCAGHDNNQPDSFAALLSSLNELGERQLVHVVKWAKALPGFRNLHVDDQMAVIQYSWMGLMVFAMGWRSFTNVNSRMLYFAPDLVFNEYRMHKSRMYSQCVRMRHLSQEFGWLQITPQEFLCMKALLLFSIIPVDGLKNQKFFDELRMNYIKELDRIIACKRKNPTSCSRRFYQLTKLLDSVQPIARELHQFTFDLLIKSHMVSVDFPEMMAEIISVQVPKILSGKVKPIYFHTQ

Row | IC50 | SMILES
1 | 90 nM | COc1cccc2c1C(=O)c1c(O)c3c(c(O)c1C2=O)C[C@@](O)(C(=O)CO)C[C@@H]3OC1C[C@H](NCNC(=O)c2cc(COCC#CCN3C(=O)N(c4ccc(C#N)c(C(F)(F)F)c4)C(=O)C3(C)C)ccc2O)[C@H](O)[C@H](C)O1 (stereo partly drawn)
2 | 346 nM | CC1(C)C(=O)N(c2ccc(C#N)c(C(F)(F)F)c2)C(=O)N1CCOCCN1CCN(CCOCc2ccc(O)c(C(N)=O)c2)CC1

Row | SMILES | IC50
3 | CC1(C)C(=O)N(c2ccc(C#N)c(C(F)(F)F)c2)C(=O)N1CCCCN1CCN(CCOCc2ccc(O)c(C(N)=O)c2)CC1 | > 1000 nM
